Results published in ChEMBL document CHEMBL1146042, “Identification of metabolites of the tryptase inhibitor CRA-9249: observation of a metabolite derived from an unexpected hydroxylation pathway” (Bioorg Med Chem Lett, 2006).

Tests used:
Tryptase = Tryptase (Homo sapiens, UniProt Q9BZJ3+Q15661+Q9NRR2); assay: Inhibition of mast cell tryptase; assay type: protein assay
[1] = Stability in rat liver microsome after 3 hrs; assay type: ADME; details: liver microsomes, read-out: Stability
[2] = Stability in human liver microsome after 3 hrs; assay type: ADME; details: liver microsomes, read-out: Stability
[3] = Stability in dog liver microsome after 3 hrs; assay type: ADME, Canis lupus familiaris; details: liver microsomes, read-out: Stability
Macaca fascicularis = organism: Macaca fascicularis; assay: Stability in cynomolgus monkey liver microsome after 3 hrs; details: liver microsomes
[4] = Stability in mouse liver microsome after 3 hrs; assay type: ADME; details: liver microsomes, read-out: Stability

Row | Structure (SMILES) | Ki (Tryptase) [µM] | also measured
1 | Cn1c(C(F)(F)c2nc3c(F)cc(F)cc3[nH]2)nc2ccc(C(=O)NC(O)COc3ccc(F)cc3)cc21 (stereo unspecified) | 0.024 | 
2 | Cn1c(C(F)(F)c2nc3c(F)cc(F)cc3[nH]2)nc2ccc(C(=O)NCCOc3ccc(F)cc3)cc21 | 0.3 | remaining at 3 h [1]: 56%; remaining at 3 h [2]: < 10%; remaining at 3 h [3]: < 10%; remaining at 3 h (Macaca fascicularis): < 10%; remaining at 3 h [4]: < 10%
3 | Cn1c(C(F)(F)c2nc3c(F)c(O)c(F)cc3[nH]2)nc2ccc(C(=O)NCCOc3ccc(F)cc3)cc21 | 1.4 | 
4 | Cn1c(C(F)(F)c2nc3c(F)cc(F)cc3[nH]2)nc2ccc(C(N)=O)cc21 | 2.7 | 
5 | Cn1c(C(F)(F)c2nc3c(F)cc(F)cc3[nH]2)nc2ccc(C(=O)NCCO)cc21 | 7 | 
6 | Cn1c(C(F)(F)c2nc3c(F)cc(F)c(O)c3[nH]2)nc2ccc(C(=O)NCCOc3ccc(F)cc3)cc21 | 0.034 | 
